In patent US12568967B2, “Compositions comprising pyridine carboxylate herbicides with synthetic auxin herbicides or auxin transport inhibitors” (priority 2018, dated 2026):
Read-outs that look alike come from different tables or passages of the source.

Tests used:
[1] = test system: Capsella bursa-pastoris (shepherd's purse, CAPBP); assay: Greenhouse postemergence trial CAPBP; type: in vivo; conditions: Capsella bursa-pastoris, post-emergence, read-out: % visual injury Obs
[2] = test system: Cirsium arvense (Canadian thistle, CIRAR); assay: Greenhouse postemergence trial CIRAR; type: in vivo; conditions: CIRAR
[3] = test system: Salsola kali (Russian thistle, SASKR); assay: Greenhouse postemergence trial SASKR; type: in vivo; conditions: SASKR;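 further: greenhouse plants sprayed at second or third true leaf stage, injury rated by eye after 20-22 d against solvent-blank controls, 0 meaning no injury, 100 complete kill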
[4] = test system: Papaver rhoeas (corn poppy, PAPRH); assay: Greenhouse postemergence trial PAPRH; type: in vivo; conditions: Papaver rhoeas, post-emergence, read-out: % visual injury Obs
[5] = test system: Kochia scoparia (kochia, KCHSC); assay: Greenhouse postemergence trial KCHSC; type: in vivo; conditions: KCHSC; for % visual injury (Obs): alone 280 g/ha
[6] = test system: Triticum aestivum (spring wheat, TRZAS); type: in vivo; conditions: TRZAS; for % visual injury (Obs): alone 280 g/ha
[7] = test system: Veronica persica (bird's-eye speedwell, VERPE); assay: Greenhouse postemergence trial VERPE; type: in vivo
[8] = test system: Matricaria discoidea (pineapple weed, MATMT); assay: Greenhouse postemergence trial MATMT; type: in vivo
[9] = test system: Amaranthus retroflexus (pigweed, AMARE); assay: Greenhouse postemergence trial AMARE; type: in vivo; conditions: AMARE; alone 280 g/ha;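 further: Greenhouse-grown plants sprayed at second to third true leaf stage, injury rated by eye after 20-22 d versus solvent-blank sprayed controls, 0 = no injury, 100 = complete kill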
[10] = test system: Chenopodium album L. (common lambsquarters, CHEAL); assay: Greenhouse postemergence trial CHEAL; type: in vivo; conditions: CHEAL; alone 280 g/ha;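 further: greenhouse plants sprayed at second to third true leaf stage, injury rated by eye after 20-22 d versus solvent-blank sprayed controls, 0 = no injury, 100 = complete kill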
Protocol: (§1) The plants were grown for 7-36 days (d) in a greenhouse with an approximate 14-hour (h) photo-period which was maintained at about 23° C. during the day and 22° C. during the night. Nutrients and water were added on a regular basis and supplemental lighting was provided with overhead metal halide 1000-Watt lamps as necessary. The plants were employed for testing when they reached the second or third true leaf stage.
(§2) The emulsifiable concentrates also included a safener, cloquintocet-mexyl, at 120 grams active ingredient per liter (g ai/L), unless otherwise noted below.
(§3) Control plants were sprayed in the same manner with the solvent blank. All pyridine carboxylate herbicide (component a) application rates are given as “g ae/ha” and all synthetic auxin herbicide or auxin transport inhibitor (component b) application rates are given as “g ai/ha.”
(§4) The treated plants and control plants were placed in a greenhouse as described above and watered by sub-irrigation to prevent wash-off of the test compounds. After 20-22 d, the condition of the test plants as compared with that of the control plants was determined visually and scored on a scale of 0 to 100 percent where 0 corresponds to no injury and 100 corresponds to complete kill.

[11] = test system: Viola tricolor (wild pansy, VIOTR); assay: Greenhouse postemergence trial VIOTR; conditions: Viola tricolor, post-emergence, read-out: % visual injury Obs;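 further: greenhouse plants sprayed at second to third true leaf stage, injury rated visually after 20-22 d against solvent-blank sprayed controls, 0 meaning no injury and 100 complete kill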
[12] = test system: Cyanus segetum (cornflower, CENCY); assay: Greenhouse postemergence trial CENCY; type: in vivo; conditions: Centaurea cyanus, post-emergence, read-out: % visual injury Obs
Protocol: (§5) Seeds of the desired test plant species were planted in a 90:10% v/v (volume/volume) mixture of PRO-MIX® BX (Premier Tech Horticulture, Quakertown, PA, USA) and PROFILE® GREENS GRADE™ (Profile Products LLC, Buffalo Grove, IL, USA) planting mixture, which typically has a pH of 5.2 to 6.2 and an organic matter content of at least 50 percent, in plastic pots with a surface area of 103.2 square centimeters (cm^2). […] The plants were grown for 7-36 days (d) in a greenhouse with an approximate 14-hour (h) photo-period which was maintained at about 23° C. during the day and 22° C. during the night. Nutrients and water were added on a regular basis and supplemental lighting was provided with overhead metal halide 1000-Watt lamps as necessary. The plants were employed for testing when they reached the second or third true leaf stage.
(§6) Emulsifiable concentrates of each of each pyridine carboxylate herbicide (Compound A or Compound B) were prepared at 100 grams acid equivalent per liter (g ae/L). The emulsifiable concentrates also included a safener, cloquintocet-mexyl, at 120 grams active ingredient per liter (g ai/L), unless otherwise noted below. An aliquot of each emulsifiable concentrate was placed in a 25 mL glass vial and diluted with an aqueous mixture of 1.25% (v/v) ACTIROB® B esterified rapeseed oil (Bayer Crop Science, Research Triangle Park, NC, USA) or MSO® Concentrate with LECI-TECH® methylated soybean oil (Loveland Products, Loveland, CO, USA) to obtain concentrated stock solutions at the highest application rate for each herbicide, based upon a 12 milliliter (mL) application volume at a rate of 187 liters per hectare (L/ha). The concentrated stock solutions were further diluted with an aqueous mixture of 1.25% v/v ACTIROB® B or MSO® Concentrate with LECI-TECH® to obtain stock solutions at reduced application rates for each herbicide. Spray solutions of the herbicide combinations (Compound A or Compound B plus synthetic auxin herbicide or auxin transport inhibitor) were prepared by adding weighed amounts or aliquots of the synthetic auxin herbicide or auxin transport inhibitor to the stock solutions of Compound A or Compound B to form 12-mL spray solutions in two-way combinations.
(§7) The spray solutions were applied to the plant material with an overhead Mandel track sprayer equipped with 8002E nozzles calibrated to deliver 187 L/ha over an application area of 0.503 square meters (m^2) at a spray height of 18 inches (43 centimeters (cm)) above the average plant canopy. Control plants were sprayed in the same manner with the solvent blank. All pyridine carboxylate herbicide (component a) application rates are given as “g ae/ha” and all synthetic auxin herbicide or auxin transport inhibitor (component b) application rates are given as “g ai/ha.”
as §4

[13] = test system: Viola arvensis (field violet, VIOAR); assay: Greenhouse postemergence trial VIOAR; type: in vivo; conditions: Viola arvensis, post-emergence, read-out: % visual injury Obs
[14] = test system: Brassica napus (winter rape, BRSNW); assay: Greenhouse postemergence trial BRSNW; type: in vivo
Protocol: as §5, §6, §7, §4

[15] = test system: Triticum aestivum (winter wheat, TRZAW); assay: Greenhouse postemergence crop phytotoxicity TRZAW; type: in vivo; conditions: TRZAW
Protocol: as §5, §6, §7, §4

[16] = test system: Stellaria media (chickweed, STEME); assay: Greenhouse postemergence trial STEME; type: in vivo; conditions: Stellaria media, post-emergence, read-out: % visual injury Obs
[17] = test system: Sinapis arvensis (wild mustard, SINAR); assay: Greenhouse postemergence trial SINAR; type: in vivo; conditions: SINAR
[18] = test system: Lamium purpureum (purple deadnettle, LAMPU); assay: Greenhouse postemergence trial LAMPU; conditions: Lamium purpureum, post-emergence, read-out: % visual injury Obs
[19] = test system: Hordeum vulgare (winter barley, HORVW); assay: Greenhouse postemergence crop phytotoxicity HORVW; type: in vivo; conditions: HORVW
[20] = test system: Polygonum convolvulus (wild buckwheat, POLCO); assay: Greenhouse postemergence trial POLCO; type: in vivo; conditions: for % visual injury (Obs): alone 280 g/ha
[21] = test system: Veronica hederifolia (ivyleaf speedwell, VERHE); assay: Greenhouse postemergence trial VERHE; type: in vivo
Protocol: as §5, §6, §7, §4

[22] = test system: Anthemis arvensis (field chamomile, ANTAR); assay: Greenhouse postemergence trial ANTAR; type: in vivo; conditions: Anthemis arvensis, post-emergence, read-out: % visual injury Obs
[23] = test system: Matricaria inodora (false chamomile, MATIN); assay: Greenhouse postemergence trial MATIN; type: in vivo; conditions: Tripleurospermum inodorum, post-emergence, read-out: % visual injury Obs
[24] = test system: Matricaria chamomilla (wild chamomile, MATCH); assay: Greenhouse postemergence trial MATCH; type: in vivo; conditions: for % visual injury (Obs): alone 280 g/ha;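 on all read-outs here: greenhouse plants sprayed at second to third true leaf stage, injury rated by eye 20-22 d later versus solvent-blank controls on 0–100 scale, 0 no injury, 100 complete kill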
[25] = test system: Brassica napus (spring rape, BRSNN); assay: Greenhouse postemergence trial BRSNN; type: in vivo; conditions: for % visual injury (Obs): BRSNN, alone 280 g/ha
Protocol: as §1, §2, §3, §4

[26] = test system: Hordeum vulgare (spring barley, HORVS); type: in vivo; conditions: HORVS; for % visual injury (Obs): alone 280 g/ha
[27] = test system: Papaver rhoeas (corn poppy), herbicide-resistant (PAPRH-R); assay: Greenhouse postemergence trial PAPRH-R; type: in vivo
Protocol: as §5, §6, §7, §4

[28] = test system: Rumex obtusifolius (broad-leaf dock, RUMOB); assay: Greenhouse postemergence trial RUMOB; type: in vivo; conditions: c2-3 Compound A 7.5/10; c4 Florpyrauxifen-benzyl 10; c5-6 A 7.5/10 + Florpyrauxifen-benzyl 10 g/ha
Protocol: as §5, §6, §7, §4

[29] = Veronica persica, post-emergence, read-out: % visual injury Obs
[30] = Matricaria discoidea, post-emergence, read-out: % visual injury Obs
[31] = Brassica napus, post-emergence, read-out: % visual injury Obs
[32] = Fallopia convolvulus, post-emergence, read-out: % visual injury Obs
[33] = Veronica hederifolia, post-emergence, read-out: % visual injury Obs
[34] = Papaver rhoeas, post-emergence, read-out: % visual injury Obs

O=C(O)COc1nc(Cl)c(Cl)cc1Cl [Triclopyr]
pest or weed control at 560 g/ha ([1]; CAPBP, alone, 560 g/ha): 75% | pest or weed control at 560 g/ha ([2]; Cirsium arvense, post-emergence, alone, 560 g/ha, read-out: % visual injury Obs): 75% | % visual injury (Obs) ([3]; alone 280 g/ha): 45% | pest or weed control at 560 g/ha ([3]; Salsola kali, post-emergence, alone, 560 g/ha, read-out: % visual injury Obs): 50% | pest or weed control at 560 g/ha ([4]; PAPRH, alone, 560 g/ha): 20% | pest or weed control at 560 g/ha ([5]; Bassia scoparia, post-emergence, alone, 560 g/ha, read-out: % visual injury Obs): 75% | % visual injury (Obs) [5]: 23% | % visual injury (Obs) [6]: 0% | % visual injury Obs ([6]; alone, 560 g/ha): 0% | VERVE % visual injury Obs ([7]; Triclopyr 45 g/ha (Table 39)): 0% | VERVE % visual injury Obs ([7]; Triclopyr 60 g/ha (Table 39)): 0% | pest or weed control at 560 g/ha ([7]; Veronica persica, post-emergence, VERPE, alone, 560 g/ha, read-out: % visual injury Obs): 60% | pest or weed control at 560 g/ha ([8]; Matricaria discoidea, post-emergence, MATMT, alone, 560 g/ha, read-out: % visual injury Obs): 10% | MATMT % visual injury Obs ([8]; Triclopyr 45 g/ha (Table 39)): 20% | MATMT % visual injury Obs ([8]; Triclopyr 60 g/ha (Table 39)): 25% | % visual injury (Obs) [9]: 45% | % visual injury (Obs) [10]: 53% | pest or weed control at 560 g/ha [11]: 70% | pest or weed control at 560 g/ha ([12]; CENCY, alone, 560 g/ha): 100% | pest or weed control at 560 g/ha ([13]; VIOAR, alone, 560 g/ha): 25% | plant injury at 560 g/ha ([14]; Brassica napus, post-emergence, BRSNW, alone, 560 g/ha, read-out: % visual injury Obs): 60% | BRSNW % visual injury Obs ([14]; Triclopyr 45 g/ha (Table 39)): 10% | BRSNW % visual injury Obs ([14]; Triclopyr 60 g/ha (Table 39)): 10% | % visual injury Obs ([15]; alone, 560 g/ha): 0% | pest or weed control at 560 g/ha ([16]; STEME, alone, 560 g/ha): 30% | pest or weed control at 560 g/ha ([17]; Mutarda arvensis, post-emergence, alone, 560 g/ha, read-out: % visual injury Obs): 100% | pest or weed control at 560 g/ha [18]: 65% | % visual injury Obs ([19]; alone, 560 g/ha): 0% | pest or weed control at 560 g/ha ([20]; Fallopia convolvulus, post-emergence, POLCO, alone, 560 g/ha, read-out: % visual injury Obs): 30% | % visual injury (Obs) ([20]; POLCO): 13% | VERHE % visual injury Obs ([21]; Triclopyr 45 g/ha (Table 39)): 10% | VERHE % visual injury Obs ([21]; Triclopyr 60 g/ha (Table 39)): 15% | pest or weed control at 560 g/ha ([21]; Veronica hederifolia, post-emergence, VERHE, alone, 560 g/ha, read-out: % visual injury Obs): 65% | pest or weed control at 560 g/ha ([22]; ANTAR, alone, 560 g/ha): 40% | pest or weed control at 560 g/ha ([23]; MATIN, alone, 560 g/ha): 0% | % visual injury (Obs) ([24]; MATCH): 5% | pest or weed control at 560 g/ha ([24]; Matricaria chamomilla, post-emergence, MATCH, alone, 560 g/ha, read-out: % visual injury Obs): 40% | MATCH % visual injury Obs ([24]; Triclopyr 45 g/ha (Table 39)): 10% | MATCH % visual injury Obs ([24]; Triclopyr 60 g/ha (Table 39)): 10% | % visual injury (Obs) [25]: 50% | % visual injury (Obs) [26]: 0% | % visual injury Obs ([26]; alone, 560 g/ha): 0% | pest or weed control at 560 g/ha ([27]; Papaver rhoeas, post-emergence, PAPRH-R, alone, 560 g/ha, read-out: % visual injury Obs): 50% | PAPRH-R % visual injury Obs ([27]; Triclopyr 45 g/ha (Table 39)): 10% | PAPRH-R % visual injury Obs ([27]; Triclopyr 60 g/ha (Table 39)): 10%

O=C(O)CCCOc1ccc(Cl)cc1Cl [2,4-DB]
pest or weed control at 560 g/ha [1]: 30% | % visual injury (Obs) ([2]; alone 280 g/ha): 15% | pest or weed control ([2]; Cirsium arvense, post-emergence, alone, read-out: % visual injury Obs): 30% | pest or weed control ([3]; Salsola kali, post-emergence, alone, read-out: % visual injury Obs): 50% | pest or weed control at 560 g/ha [4]: 100% | pest or weed control ([5]; Bassia scoparia, post-emergence, alone, read-out: % visual injury Obs): 30% | % visual injury (Obs) [5]: 3% | % visual injury (Obs) [6]: 0% | % visual injury Obs ([6]; alone, 560 g/ha): 0% | pest or weed control at 560 g/ha [7, 29]: 60% | pest or weed control at 560 g/ha [8, 30]: 5% | % visual injury (Obs) [9]: 60% | % visual injury (Obs) [10]: 43% | pest or weed control at 560 g/ha [11]: 60% | pest or weed control at 560 g/ha [12]: 30% | pest or weed control at 560 g/ha [13]: 30% | plant injury at 560 g/ha [14, 31]: 85% | % visual injury Obs ([15]; alone, 560 g/ha): 0% | pest or weed control at 560 g/ha [16]: 10% | pest or weed control ([17]; Mutarda arvensis, post-emergence, alone, read-out: % visual injury Obs): 50% | % visual injury (Obs) ([17]; alone 280 g/ha): 30% | pest or weed control at 560 g/ha [18]: 10% | % visual injury Obs ([19]; alone, 560 g/ha): 0% | pest or weed control at 560 g/ha [20, 32]: 30% | % visual injury (Obs) ([20]; POLCO): 13% | pest or weed control at 560 g/ha [21, 33]: 60% | pest or weed control at 560 g/ha [22]: 10% | pest or weed control at 560 g/ha [23]: 10% | % visual injury (Obs) ([24]; MATCH): 5% | pest or weed control ([24]; Matricaria chamomilla, post-emergence, MATCH, alone, read-out: % visual injury Obs): 10% | % visual injury (Obs) [25]: 70% | % visual injury (Obs) [26]: 0% | % visual injury Obs ([26]; alone, 560 g/ha): 0% | pest or weed control at 560 g/ha [27, 34]: 30%

COc1c(Cl)ccc(-c2nc(C(=O)OCc3ccccc3)c(Cl)c(N)c2F)c1F [Florpyrauxifen-benzyl, florpyrauxifen-benzyl, reference compound]
pest or weed control at 20 g/ha [1]: 80% | pest or weed control at 20 g/ha ([2]; Cirsium arvense, post-emergence, Florpyrauxifen-benzyl 20 g/ha, read-out: % visual injury Obs): 70% | pest or weed control at 20 g/ha ([3]; Salsola kali, post-emergence, Florpyrauxifen-benzyl 20 g/ha, read-out: % visual injury Obs): 70% | pest or weed control at 20 g/ha [4]: 70% | pest or weed control at 20 g/ha ([5]; Bassia scoparia, post-emergence, Florpyrauxifen-benzyl 20 g/ha, read-out: % visual injury Obs): 65% | % visual injury Obs ([6]; Florpyrauxifen-benzyl 20 g/ha): 0% | pest or weed control at 20 g/ha [7, 29]: 10% | pest or weed control at 20 g/ha [8, 30]: 50% | pest or weed control at 20 g/ha [11]: 70% | pest or weed control at 20 g/ha [12]: 100% | pest or weed control at 20 g/ha [13]: 10% | plant injury at 20 g/ha [14, 31]: 40% | % visual injury Obs ([15]; Florpyrauxifen-benzyl 20 g/ha): 0% | pest or weed control at 20 g/ha [16]: 100% | pest or weed control at 20 g/ha ([17]; Mutarda arvensis, post-emergence, Florpyrauxifen-benzyl 20 g/ha, read-out: % visual injury Obs): 90% | pest or weed control at 20 g/ha [18]: 97% | % visual injury Obs ([19]; Florpyrauxifen-benzyl 20 g/ha): 0% | pest or weed control at 20 g/ha [20, 32]: 85% | pest or weed control at 20 g/ha [21, 33]: 20% | pest or weed control at 20 g/ha [22]: 100% | pest or weed control at 20 g/ha [23]: 50% | pest or weed control at 20 g/ha ([24]; Matricaria chamomilla, post-emergence, MATCH, Florpyrauxifen-benzyl 20 g/ha, read-out: % visual injury Obs): 35% | % visual injury, Obs ([25]; c2-3 Compound A 7.5/10, c4 Florpyrauxifen-benzyl 10, c5-6 A 7.5/10 + Florpyrauxifen-benzyl 10 g/ha): 25% | % visual injury, Obs [28]: 33% | % visual injury Obs ([26]; Florpyrauxifen-benzyl 20 g/ha): 0% | pest or weed control at 20 g/ha [27, 34]: 60%
